Values quoted from earlier work, collected in patent US20200368315A1, “ANTIMICROBIAL PEPTIDES AND ADMIXTURES THEREOF SHOWING ANTIMICROBIAL ACTIVITY AGAINST GRAM-NEGATIVE PATHOGENS” (priority 2017, published 2020).
Like-named read-outs stand apart in the source and are kept apart here. No end group written: not given here.

Legend:
indicator strains = conditions: indicator strain not given; cited from earlier work
[1] = cited from earlier work

| Compound | Biological activity (relative to the wild type) (indicator strains) | Biological activity (relative to the wild type) ([1]; gene nisA (nisin A mutants)) | also measured |
| --- | --- | --- | --- |
| CN[C@H](CC(C)C)C(=O)N[C@H]1C(=O)N[C@@H](CC(N)=O)C(=O)N[C@H]2C(=O)N[C@H]3C(=O)N[C@H](C(=O)N[C@H](C(=O)O)c4cc(O)cc(O)c4-c4cc3ccc4O)[C@H](O)c3ccc(c(Cl)c3)Oc3cc2cc(c3O[C@@H]2O[C@H](CO)[C@@H](O)[C@H](O)[C@H]2O[C@H]2C[C@](C)(NCc3ccc(-c4ccc(Cl)cc4)cc3)[C@H](O)[C@H](C)O2)Oc2ccc(cc2Cl)[C@H]1O [Compound 1, Chlorobiphenyl Vancomycin] | Increased (Increased activity, >120% compared with the activity of vancomycin) | – | – |
| N20V (ITSISLCTPGCKTGALMGCVMKTATCHCSIHVSK; not fully specified; cysteine pairing not given here; also: lantibiotic nisin-A; UniProt P13068 24-57, looked up, variant N20V) | – | – | Biological activity (relative to the wild type) ([1]; gene nisZ (nisin Z mutants)): Increased (Increased activity, >120% compared to the activity of wild type nisin A/Z) |
| Chlorobiphenyl Des-methyl vancomycin [Compound 8] | Increased (Increased activity, >120% compared with the activity of vancomycin) | – | – |
| M21V (ITSISLCTPGCKTGALMGCNVKTATCHCSIHVSK; cysteine pairing not given here; also: lantibiotic nisin-A; UniProt P13068 24-57, looked up, variant M21V) | – | Increased (Increased activity, >120% compared to the activity of wild type nisin A/Z) | – |
| K12T (ITSISLCTPGCTTGALMGCNMKTATCHCSIHVSK; cysteine pairing not given here; also: lantibiotic nisin-A; UniProt P13068 24-57, looked up, variant K12T) | – | Increased (Increased activity, >120% compared to the activity of wild type nisin A/Z) | – |
| K12S (ITSISLCTPGCSTGALMGCNMKTATCHCSIHVSK; cysteine pairing not given here; also: lantibiotic nisin-A; UniProt P13068 24-57, looked up, variant K12S) | – | Increased (Increased activity, >120% compared to the activity of wild type nisin A/Z) | – |
| CCCCCCCCCCNCCN[C@@]1(C)C[C@H](O[C@H]2[C@H](Oc3c4cc5cc3Oc3ccc(cc3Cl)[C@@H](O)[C@@H](NC(=O)[C@@H](CC(C)C)NC)C(=O)N[C@@H](CC(N)=O)C(=O)N[C@H]5C(=O)N[C@H]3C(=O)N[C@H](C(=O)N[C@H](C(=O)O)c5cc(O)c(CNCP(=O)(O)O)c(O)c5-c5cc3ccc5O)[C@H](O)c3ccc(c(Cl)c3)O4)O[C@H](CO)[C@@H](O)[C@@H]2O)O[C@@H](C)[C@H]1O [Telavancin] | Increased (Increased activity, >120% compared with the activity of vancomycin) | – | – |
| N20P (ITSISLCTPGCKTGALMGCPMKTATCHCSIHVSK; not fully specified; cysteine pairing not given here; also: lantibiotic nisin-A; UniProt P13068 24-57, looked up, variant N20P) | – | Increased (Increased activity, >120% compared to the activity of wild type nisin A/Z) | – |
